Legend:
Type in all cases: cell-based
[1] = tested on: DoHH2 cells; experiment: Cell proliferation assay, DoHH2 cells (MTS, 120 h); conditions: Homo sapiens, DOHH-2
In short: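 DoHH2 cells in RPMI-1640 with 10% FBS were plated at 5000/well and rested 4 h. They were then exposed to compound at nine final concentrations (10000 to 1.5 nM) for 120 h at 37 °C. Viability was read by MTS (2 h, A490) and IC50 derived by curve fitting.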

[2] = tested on: RS4;11 cells; experiment: Cell proliferation assay, RS4;11 cells (MTS, 72 h); conditions: Homo sapiens, RS4;11 cell proliferation
In short: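 RS4;11 cells (30000/well, RPMI-1640 plus 10% FBS) treated with compounds at 1.5-10000 nM for 72 h at 37° C, 5% CO2. Viability by MTS (2 h), absorbance at 490 nm with 650 nm reference; IC50 from proliferation inhibition.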

[3] = tested on: Toledo cells; experiment: Cell proliferation assay, Toledo cells (MTS, 72 h); conditions: Homo sapiens, Toledo cells, MTS, read-out: Toledo IC50
In short: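 IC50 was derived from 490 nm absorbance after a 2 h MTS step. Before that, compounds at 1.5–10000 nM final (nine points) acted on Toledo cells for 72 h at 37 °C, 5% CO2. Cells were seeded at 30000/well in 10% FBS RPMI-1640 and rested 4 h before dosing.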

Row | IC50 [2] | SMILES | IC50 [1] | IC50 [3]
1 | ≤ 1 nM | CC(C)c1ccccc1[C@H]1CCCN1C1CC2(CCN(c3ccc(C(=O)NS(=O)(=O)c4cnc(NCC5C6COCC56)c([N+](=O)[O-])c4)c(Oc4cnc5[nH]ccc5c4)c3)CC2)C1 (stereo partly drawn) [Example A-27b, 2-((1H-pyrrolo[2,3-b]pyridin-5-yl)oxy)-N-((6-(((3-oxabicyclo[3.1.0]hexan-6-yl)methyl)amino)-5-nitro-pyridin-3-yl)sulfonyl)-4-(2-((R)-2-(2-isopropylphenyl)pyrrolidin-1-yl)-7-azaspiro[3.5]nonan-7-yl) benzamide] | ≤ 1 nM | 1 nM
2 | ≤ 1 nM | Cc1nc(NC[C@H]2CC[C@](C)(O)CC2)c([N+](=O)[O-])cc1S(=O)(=O)NC(=O)c1ccc(N2CCC3(CC2)CC(N2CCC[C@H]2c2ccccc2C(C)C)C3)cc1Oc1cnc2[nH]ccc2c1 (single isomer, unassigned) [Example A-121, 2-((1H-pyrrolo[2,3-b]pyridin-5-yl)oxy)-N-((6-((((1r,4r)-4-hydroxy-4-methylcyclohexyl)methyl)amino)-2-methyl-5-nitropyridin-3-yl)sulfonyl)-4-(2-((R or S)-2-(2-isopropylphenyl)pyrrolidin-1-yl)-7-azaspiro[3.5]nonan-7-yl) benzamide] | ≤ 1 nM | 1 nM
3 | ≤ 1 nM | CC(C)c1ccccc1[C@H]1CCCN1C1CC2(CCN(c3ccc(C(=O)NS(=O)(=O)c4cnc(NC[C@H]5CC[C@](C)(O)CC5)c([N+](=O)[O-])c4)c(Oc4cnc5[nH]ccc5c4)c3)CC2)C1 [Example A-7b] | ≤ 1 nM | 1 nM
4 | ≤ 1 nM | C[C@]1(O)CC[C@H](CNc2ncc(S(=O)(=O)NC(=O)c3ccc(N4CCC5(CC4)CC(N4CCNC[C@H]4c4ccccc4C4CC4)C5)cc3Oc3cnc4[nH]ccc4c3)cc2[N+](=O)[O-])CC1 [Example A-37, 2-((1H-pyrrolo[2,3-b]pyridin-5-yl)oxy)-4-(2-((R)-2-(2-cyclopropyl-phenyl)piperazin-1-yl)-7-azaspiro [3.5]nonan-7-yl)-N-((6-((((1r,4r)-4-hydroxy-4-methylcyclohexyl)methyl)amino)-5-nitropyridin-3-yl)sulfonyl)benzamide] | ≤ 1 nM | 1 nM
5 | ≤ 1 nM | CC(C)c1ccccc1[C@@H]1COCCN1C1CC2(CCN(c3ccc(C(=O)NS(=O)(=O)c4cnc(NC[C@H]5CC[C@](C)(O)CC5)c([N+](=O)[O-])c4)c(Oc4cnc5[nH]ccc5c4)c3)CC2)C1 (single isomer, unassigned) [Example A-56b, 2-((1H-pyrrolo[2,3-b]pyridin-5-yl)oxy)-N-((6-((((1r,4r)-4-hydroxy-4-methylcyclohexyl)methyl)amino)-5-nitropyridin-3-yl)sulfonyl)-4-(2-((R or S)-3-(2-isopropylphenyl)morpho-lino)-7-azaspiro[3.5]nonan-7-yl) benzamide] | ≤ 1 nM | 1 nM
6 | ≤ 1 nM | O=C(NS(=O)(=O)c1cnc(NCC2C3COCC23)c([N+](=O)[O-])c1)c1ccc(N2CCC3(CC2)CC(N2CCC4C[C@]42c2ccccc2C2CC2)C3)cc1Oc1cnc2[nH]ccc2c1 (single isomer, unassigned) [Example A-97b, 2-((1H-pyrrolo[2,3-b]pyridin-5-yl)oxy)-N-((6-(((3-oxabicyclo[3.1.0]hexan-6-yl)methyl)amino)-5-nitro-pyridin-3-yl)sulfonyl)-4-(2-((1R or 1S)-1-(2-cyclopropylphenyl)-2-aza-bicyclo[3.1.0]hexan-2-yl)-7-azaspiro [3.5]nonan-7-yl)benzamide] | ≤ 1 nM | 6 nM
7 | ≤ 1 nM | CN1CCN(C2CC3(CCN(c4ccc(C(=O)NS(=O)(=O)c5cnc(NC[C@H]6CC[C@](C)(O)CC6)c([N+](=O)[O-])c5)c(Oc5cnc6[nH]ccc6c5)c4)CC3)C2)[C@H](c2ccccc2C2CC2)C1 (single isomer, unassigned) [Example A-40, 2-((1H-pyrrolo[2,3-b]pyridin-5-yl)oxy)-4-(2-((R or S)-2-(2-cyclopropylphenyl)-4-methylpiperazin-1-yl)-7-azaspiro[3.5]nonan-7-yl)-N-((6-((((1r,4r)-4-hydroxy-4-methylcyclohexyl)methyl)amino)-5-nitropyridin-3-yl)sulfonyl)benzamide] | ≤ 1 nM | 1 nM
8 | ≤ 1 nM | CN1CCN(C2CC3(CCN(c4ccc(C(=O)NS(=O)(=O)c5cnc(NCC6CCOCC6)c([N+](=O)[O-])c5)c(Oc5cnc6[nH]ccc6c5)c4)CC3)C2)[C@H](c2ccccc2C2CC2)C1 (single isomer, unassigned) [Example A-39a, (R or S)-2-((1H-pyrrolo[2,3-b]pyridin-5-yl)oxy)-4-(2-(2-(2-cyclopropyl-phenyl)-4-methylpiperazin-1-yl)-7-azaspiro[3.5]nonan-7-yl)-N-((5-nitro-6-(((tetrahydro-2H-pyran-4-yl)methyl)amino)pyridin-3-yl)sulfonyl) benzamide] | ≤ 1 nM | 1 nM
9 | ≤ 1 nM | CC(C)c1ccccc1C1COCCN1C1CC2(CCN(c3ccc(C(=O)NS(=O)(=O)c4cnc(NCC5(C#N)CCOCC5)c([N+](=O)[O-])c4)c(Oc4cnc5[nH]ccc5c4)c3)CC2)C1 (single isomer, unassigned) [Example A-142, (R or S)-2-((1H-pyrrolo[2,3-b]pyridin-5-yl)oxy)-N-((6-(((4-cyanotetrahydro-2H-pyran-4-yl)methyl)amino)-5-nitro-pyridin-3-yl)sulfonyl)-4-(2-(3-(2-iso-propylphenyl)morpholino)-7-azaspiro [3.5]nonan-7-yl)benzamide] | ≤ 1 nM | 9 nM
10 | ≤ 1 nM | CC(C)c1ccccc1C1COCCN1C1CC2(CCN(c3ccc(C(=O)NS(=O)(=O)c4cnc(NCC5CCOCC5)c([N+](=O)[O-])c4)c(Oc4cnc5[nH]ccc5c4)c3)CC2)C1 (single isomer, unassigned) [Example A-55a, (R or S)-2-((1H-pyrrolo[2,3-b]pyridin-5-yl)oxy)-4-(2-(3-(2-isopropyl-phenyl)morpholino)-7-azaspiro[3.5]nonan-7-yl)-N-((5-nitro-6-(((tetra-hydro-2H-pyran-4-yl)methyl)amino)pyridin-3-yl)sulfonyl)benzamide] | ≤ 1 nM | 5 nM
11 | ≤ 1 nM | CC(C)c1ccccc1[C@H]1CCCN1C1CC2(CCN(c3ccc(C(=O)NS(=O)(=O)c4cnc(NCC5(F)CCOCC5)c([N+](=O)[O-])c4)c(Oc4cnc5[nH]ccc5c4)c3)CC2)C1 [Example A-31b, (R)-2-((1H-pyrrolo[2,3-b]pyridin-5-yl)oxy)-N-((6-(((4-fluorotetra-hydro-2H-pyran-4-yl)methyl)amino)-5-nitropyridin-3-yl)sulfonyl)-4-(2-(2-(2-isopropylphenyl)pyrrolidin-1-yl)-7-azaspiro[3.5]nonan-7-yl)benzamide] | ≤ 1 nM | 2 nM
12 | ≤ 1 nM | CC(C)c1ccccc1[C@@H]1CCCN1C1CC2(CCN(c3ccc(C(=O)NS(=O)(=O)c4cc5c(c([N+](=O)[O-])c4)O[C@H](CN4CCOCC4)CO5)c(Oc4cnc5[nH]ccc5c4)c3)CC2)C1 (single isomer, unassigned) [Example E-39, 2-((1H-pyrrolo [2,3-b]pyridin-5-yl)oxy)-4-(2-((R or S)-2-(2-isopropylphenyl)pyrrolidin-1-yl)-7-azaspiro[3.5]nonan-7-yl)-N-(((R)-2-(morpholinomethyl)-8-nitro-2,3-dihydrobenzo [b][1,4]dioxin-6-yl)sulfonyl) benzamide] | ≤ 1 nM | 1 nM
13 | ≤ 1 nM | O=C(NS(=O)(=O)c1cnc(NCC2CCOCC2)c([N+](=O)[O-])c1)c1ccc(N2CCC3(CC2)CC(N2CCC[C@@H]2c2ccccc2C2CC2)C3)cc1Oc1cnc2[nH]ccc2c1 [Example A-3b, (R)-2-((1H-pyrrolo[2,3-b]pyridin-5-yl)oxy)-4-(2-(2-(2-cyclopropyl-phenyl)pyrrolidin-1-yl)-7-azaspiro [3.5]nonan-7-yl)-N-((5-nitro-6-(((tetrahydro-2H-pyran-4-yl)methyl)amino)pyridin-3-yl)sulfonyl) benzamide] | ≤ 1 nM | 1 nM
14 | ≤ 1 nM | O=C(NS(=O)(=O)c1cnc(NCC2C3COCC23)c([N+](=O)[O-])c1)c1ccc(N2CCC3(CC2)CC(N2CCC[C@@H]2c2ccccc2C2CC2)C3)cc1Oc1cnc2[nH]ccc2c1 (stereo partly drawn) [Example A-30b, 2-((1H-pyrrolo[2,3-b]pyridin-5-yl)oxy)-N-((6-(((3-oxabicyclo[3.1.0]hexan-6-yl)methyl)amino)-5-nitro-pyridin-3-yl)sulfonyl)-4-(2-((R)-2-(2-cyclopropylphenyl)pyrrolidine-1-yl)-7-azaspiro[3.5]nonan-7-yl)benzamide] | ≤ 1 nM | 1 nM
15 | ≤ 1 nM | CC1(O)CCC(CNc2ncc(S(=O)(=O)NC(=O)c3ccc(N4CCC5(CC4)CC(N4CCOC[C@H]4c4ccccc4C4CC4)C5)cc3Oc3cnc4[nH]ccc4c3)cc2[N+](=O)[O-])CC1 (single isomer, unassigned) [Example A-34, (R or S)-2-((1H-pyrrolo[2,3-b]pyridin-5-yl)oxy)-4-(2-(3-(2-cyclopropylphenyl)morpholino)-7-azaspiro[3.5]nonan-7-yl)-N-((6-(((4-hydroxy-4-methylcyclohexyl)methyl)amino)-5-nitropyridin-3-yl)sulfonyl) benzamide] | ≤ 1 nM | 7 nM
